According to patent publication US8486951B2 (Deciphera Pharmaceuticals, LLC, priority 2008, dated 2013):

Columns and labels:
Assay type in all cases: biochemical
[1] = target: T1, c-MET kinase (Seq. ID no. 2) (Homo sapiens, UniProt P08581); assay: c-MET Kinase Assay (ADP production, pyruvate kinase/lactate dehydrogenase coupled); conditions: read-out: cMET Enzyme Assay
T1 construct: purchased Invitrogen PV3143
Description: In this assay, the oxidation of NADH (thus the decrease at A340 nm) was continuously monitored spectrophometrically. […] Test compounds were incubated with C-Met (Seq. ID no. 2) and other reaction reagents at 22° C. for 0.5 h before ATP (100 μM) was added to start the reaction. The absorption at 340 nm was monitored continuously for 2 hours at 30° C. on Polarstar Optima plate reader (BMG). The reaction rate was calculated using the 1.0 to 2.0 h time frame. Percent inhibition was obtained by comparison of reaction rate with that of a control (i.e. with no test compound). IC50 values were calculated from a series of percent inhibition values determined at a range of inhibitor concentrations using software routines as implemented in the GraphPad Prism software package.

[2] = target: T2, c-KIT kinase (Seq. ID no. 1) (Homo sapiens, UniProt P10721); assay: c-KIT kinase Assay (ADP production, pyruvate kinase/lactate dehydrogenase coupled); conditions: read-out: cKIT Enzyme Assay
T2 construct: purchased ProQinase
T2 sequence (P10721 with tags, fused parts or gaps): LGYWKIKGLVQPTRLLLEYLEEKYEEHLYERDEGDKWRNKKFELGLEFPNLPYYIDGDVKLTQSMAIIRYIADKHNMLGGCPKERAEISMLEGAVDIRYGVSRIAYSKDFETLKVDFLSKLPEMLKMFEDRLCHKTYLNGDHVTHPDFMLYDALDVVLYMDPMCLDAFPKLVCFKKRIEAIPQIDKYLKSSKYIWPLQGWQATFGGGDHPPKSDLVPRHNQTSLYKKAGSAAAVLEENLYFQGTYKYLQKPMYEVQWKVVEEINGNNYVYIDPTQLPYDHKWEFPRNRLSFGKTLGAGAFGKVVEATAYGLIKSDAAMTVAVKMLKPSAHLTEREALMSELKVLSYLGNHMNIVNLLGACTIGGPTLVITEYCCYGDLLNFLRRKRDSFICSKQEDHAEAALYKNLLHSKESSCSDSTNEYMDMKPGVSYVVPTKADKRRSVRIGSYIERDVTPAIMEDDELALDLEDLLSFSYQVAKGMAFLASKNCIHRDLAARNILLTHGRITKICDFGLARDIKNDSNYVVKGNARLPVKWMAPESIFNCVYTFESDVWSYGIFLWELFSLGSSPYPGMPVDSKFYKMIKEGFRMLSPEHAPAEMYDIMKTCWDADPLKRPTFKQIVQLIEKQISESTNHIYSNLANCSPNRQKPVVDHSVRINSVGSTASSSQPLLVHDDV
Description: In this assay, the oxidation of NADH (thus the decrease at A340 nm) was continuously monitored spectrophometrically. […] The absorption at 340 nm was monitored continuously for 0.5 hours at 30° C. on Polarstar Optima plate reader (BMG). The reaction rate was calculated using the 0 to 0.5 h time frame. Percent inhibition was obtained by comparison of reaction rate with that of a control (i.e. with no test compound). IC50 values were calculated from a series of percent inhibition values determined at a range of inhibitor concentrations using software routines as implemented in the GraphPad Prism software package.

[3] = target: KDR kinase (Seq ID No. 3) (Homo sapiens, UniProt P35968, DEL940-989/E990V); assay: KDR Kinase Assay (assays K1, K2, K3); conditions: assay variant K1, K2 or K3 not stated; read-out: KDR Enzyme Assay
Chain of KDR kinase (Seq ID No. 3) (P35968 with tags, fused parts or gaps DEL940-989/E990V): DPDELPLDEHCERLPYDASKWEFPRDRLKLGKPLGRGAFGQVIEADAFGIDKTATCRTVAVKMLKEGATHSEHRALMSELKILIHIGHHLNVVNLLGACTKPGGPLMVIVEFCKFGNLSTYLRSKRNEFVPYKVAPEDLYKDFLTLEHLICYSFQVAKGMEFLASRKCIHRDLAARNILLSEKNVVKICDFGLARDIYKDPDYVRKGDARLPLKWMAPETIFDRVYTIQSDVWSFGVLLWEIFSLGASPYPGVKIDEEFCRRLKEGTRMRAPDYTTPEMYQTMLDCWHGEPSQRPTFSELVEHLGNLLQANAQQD

[4] = target: T3, PDGFRα kinase (Homo sapiens, UniProt P16234); assay: PDGFRα Kinase Assay; conditions: read-out: PDGFRa Enzyme Assay
T3 construct: purchased Invitrogen
T3 sequence (P16234 24-1089): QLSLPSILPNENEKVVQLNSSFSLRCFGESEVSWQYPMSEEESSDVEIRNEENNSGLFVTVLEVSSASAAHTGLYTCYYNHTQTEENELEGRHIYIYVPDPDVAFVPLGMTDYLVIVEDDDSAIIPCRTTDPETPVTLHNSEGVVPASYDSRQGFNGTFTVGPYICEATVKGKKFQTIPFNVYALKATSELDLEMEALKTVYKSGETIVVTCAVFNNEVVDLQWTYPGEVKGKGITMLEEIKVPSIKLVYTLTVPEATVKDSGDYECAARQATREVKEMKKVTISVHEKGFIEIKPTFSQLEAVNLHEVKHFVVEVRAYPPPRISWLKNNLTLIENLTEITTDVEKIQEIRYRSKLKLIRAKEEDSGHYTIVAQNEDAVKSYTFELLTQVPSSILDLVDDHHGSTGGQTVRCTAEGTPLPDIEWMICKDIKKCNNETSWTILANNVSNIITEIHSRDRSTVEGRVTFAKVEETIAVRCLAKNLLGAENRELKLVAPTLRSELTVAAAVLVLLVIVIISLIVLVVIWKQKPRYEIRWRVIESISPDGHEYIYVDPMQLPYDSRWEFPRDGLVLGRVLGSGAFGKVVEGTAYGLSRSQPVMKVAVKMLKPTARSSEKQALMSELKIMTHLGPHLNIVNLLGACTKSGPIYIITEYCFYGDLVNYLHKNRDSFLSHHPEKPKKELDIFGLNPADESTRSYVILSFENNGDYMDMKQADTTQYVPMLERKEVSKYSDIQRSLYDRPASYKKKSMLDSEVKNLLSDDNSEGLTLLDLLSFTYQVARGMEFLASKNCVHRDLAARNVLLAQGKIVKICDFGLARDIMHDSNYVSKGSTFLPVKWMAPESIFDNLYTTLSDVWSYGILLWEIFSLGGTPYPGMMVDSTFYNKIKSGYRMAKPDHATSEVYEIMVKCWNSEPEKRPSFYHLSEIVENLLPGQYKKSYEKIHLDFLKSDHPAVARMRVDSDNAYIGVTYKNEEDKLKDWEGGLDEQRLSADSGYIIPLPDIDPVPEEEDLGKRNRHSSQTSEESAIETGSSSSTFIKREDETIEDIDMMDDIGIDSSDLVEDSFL
Description: (§1) Activity of PDGFRα kinase was determined by following the production of ADP from the kinase reaction through coupling with the pyruvate kinase/lactate dehydrogenase system. In this assay, the oxidation of NADH (thus the decrease at A340 nm) was continuously monitored spectrophometrically. The reaction mixture (100 μl) contained PDGFRα (Invitrogen, 10 nM), polyE4Y (1 mg/ml), MgCl2 (10 mM), pyruvate kinase (4 units), lactate dehydrogenase (0.7 units), phosphoenol pyruvate (1 mM) and NADH (0.28 mM) and ATP (500 μM) in a 90 mM Tris buffer containing 0.2% octyl-glucoside and 1% DMSO, pH 7.5. The inhibition reaction was started by mixing serial diluted test compound with the above reaction mixture. The absorption at 340 nm was monitored continuously for 4 hours at 30° C. on a Polarstar Optima or Synergy 2 plate reader. The reaction rate was calculated using the 2 to 3 h time frame. Percent inhibition was obtained by comparison of reaction rate with that of a control (i.e. with no test compound). IC50 values were calculated from a series of percent inhibition values determined at a range of inhibitor concentrations using software routines as implemented in the GraphPad Prism software package.

[5] = target: T4, PDGFRβ (Homo sapiens, UniProt P09619); assay: PDGFRβ Kinase Assay; conditions: read-out: PDGFRb Enzyme Assay
T4 construct: purchased Invitrogen
T4 sequence (P09619 33-1106): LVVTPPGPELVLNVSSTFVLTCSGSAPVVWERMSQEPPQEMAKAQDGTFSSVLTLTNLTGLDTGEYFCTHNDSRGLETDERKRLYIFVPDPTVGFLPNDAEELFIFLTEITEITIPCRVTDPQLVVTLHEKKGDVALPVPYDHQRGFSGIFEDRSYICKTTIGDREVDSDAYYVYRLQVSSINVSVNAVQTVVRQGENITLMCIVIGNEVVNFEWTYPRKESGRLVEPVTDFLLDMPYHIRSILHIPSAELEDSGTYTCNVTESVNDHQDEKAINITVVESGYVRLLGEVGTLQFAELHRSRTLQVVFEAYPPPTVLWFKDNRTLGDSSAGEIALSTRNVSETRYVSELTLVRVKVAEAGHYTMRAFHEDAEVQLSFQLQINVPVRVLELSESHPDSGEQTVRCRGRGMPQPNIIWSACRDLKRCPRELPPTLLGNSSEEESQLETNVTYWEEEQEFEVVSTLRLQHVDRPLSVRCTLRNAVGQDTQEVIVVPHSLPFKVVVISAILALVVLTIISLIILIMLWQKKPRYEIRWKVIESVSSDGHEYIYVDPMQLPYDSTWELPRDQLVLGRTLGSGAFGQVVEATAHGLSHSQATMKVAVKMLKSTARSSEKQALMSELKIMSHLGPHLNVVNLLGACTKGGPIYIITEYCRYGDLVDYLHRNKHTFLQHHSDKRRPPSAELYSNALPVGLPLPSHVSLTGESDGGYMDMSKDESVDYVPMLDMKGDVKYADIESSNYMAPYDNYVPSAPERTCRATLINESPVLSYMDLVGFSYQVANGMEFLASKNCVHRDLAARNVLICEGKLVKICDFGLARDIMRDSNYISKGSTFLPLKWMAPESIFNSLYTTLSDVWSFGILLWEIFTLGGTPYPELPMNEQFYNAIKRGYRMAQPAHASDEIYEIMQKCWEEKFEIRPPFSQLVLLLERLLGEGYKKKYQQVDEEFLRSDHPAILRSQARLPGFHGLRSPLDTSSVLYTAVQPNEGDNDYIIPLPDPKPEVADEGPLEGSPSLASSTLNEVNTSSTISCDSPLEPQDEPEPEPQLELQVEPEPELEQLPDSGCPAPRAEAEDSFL

[6] = target: T5, FMS kinase (Homo sapiens, UniProt P07333); assay: FMS Kinase Assay; conditions: read-out: FMS Enzyme Assay
T5 construct: purchased Invitrogen or Millipore
T5 sequence (P07333 20-972): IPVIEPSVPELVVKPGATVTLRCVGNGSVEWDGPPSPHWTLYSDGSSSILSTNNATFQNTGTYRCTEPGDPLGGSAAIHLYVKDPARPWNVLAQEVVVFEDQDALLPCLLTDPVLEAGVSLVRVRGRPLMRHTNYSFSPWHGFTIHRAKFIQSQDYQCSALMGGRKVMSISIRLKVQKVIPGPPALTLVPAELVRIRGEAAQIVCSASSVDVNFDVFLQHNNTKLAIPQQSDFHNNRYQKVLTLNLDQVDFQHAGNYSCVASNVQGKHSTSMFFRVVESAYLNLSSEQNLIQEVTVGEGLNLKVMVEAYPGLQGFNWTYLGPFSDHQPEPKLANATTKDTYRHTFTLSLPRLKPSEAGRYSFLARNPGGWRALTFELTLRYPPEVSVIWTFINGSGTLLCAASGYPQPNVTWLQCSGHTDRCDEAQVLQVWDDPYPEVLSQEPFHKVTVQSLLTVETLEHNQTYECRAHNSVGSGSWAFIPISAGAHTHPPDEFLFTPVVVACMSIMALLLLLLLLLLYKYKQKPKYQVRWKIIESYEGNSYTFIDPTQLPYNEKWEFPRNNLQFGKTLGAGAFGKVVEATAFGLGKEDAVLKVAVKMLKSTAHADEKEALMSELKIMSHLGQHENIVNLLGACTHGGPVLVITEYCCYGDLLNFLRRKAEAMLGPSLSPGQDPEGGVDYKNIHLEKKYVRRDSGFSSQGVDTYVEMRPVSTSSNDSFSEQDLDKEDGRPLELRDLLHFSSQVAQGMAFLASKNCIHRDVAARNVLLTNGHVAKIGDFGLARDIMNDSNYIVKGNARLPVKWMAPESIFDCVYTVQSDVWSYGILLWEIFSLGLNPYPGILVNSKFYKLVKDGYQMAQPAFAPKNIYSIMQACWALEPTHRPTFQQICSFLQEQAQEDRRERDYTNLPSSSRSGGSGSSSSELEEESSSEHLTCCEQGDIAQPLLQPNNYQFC
Description: as §1, with “In” for “Activity of PDGFRα kinase was determined by following the production of ADP from the kinase reaction through coupling with the pyruvate kinase/lactate dehydrogenase system. In”, “FMS (purchased from Invitrogen or Millipore, 6” for “PDGFRα (Invitrogen, 10”

T1 sequence (P08581 with tags, fused parts or gaps): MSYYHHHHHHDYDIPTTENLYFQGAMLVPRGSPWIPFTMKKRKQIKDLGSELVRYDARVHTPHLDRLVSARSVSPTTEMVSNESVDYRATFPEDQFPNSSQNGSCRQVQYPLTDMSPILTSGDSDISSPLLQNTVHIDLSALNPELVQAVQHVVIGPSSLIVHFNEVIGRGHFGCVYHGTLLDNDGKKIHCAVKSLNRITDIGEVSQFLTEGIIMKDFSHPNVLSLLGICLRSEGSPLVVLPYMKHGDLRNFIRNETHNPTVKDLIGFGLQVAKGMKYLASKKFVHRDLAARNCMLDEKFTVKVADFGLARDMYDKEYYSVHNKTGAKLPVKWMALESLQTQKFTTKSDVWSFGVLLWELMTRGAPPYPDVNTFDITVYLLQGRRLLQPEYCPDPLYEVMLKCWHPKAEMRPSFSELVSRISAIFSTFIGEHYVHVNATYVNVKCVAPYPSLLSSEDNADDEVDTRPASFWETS

Row | IC50 [1] [µM] | IC50 [3] [µM] | Structure (SMILES) | other results
1 | < 0.2 | < 2 | Cn1cc(-c2cc(Oc3ccc(NC(=O)C4(C(=O)Nc5ccc(F)cc5)CC4)c(F)c3F)ccn2)cn1 [Example 1, N-(2,3-difluoro-4-(2-(1-methyl-1H-pyrazol-4-yl)pyridin-4-yloxy)phenyl)-N′-(4-fluorophenyl)cyclopropane-1,1-dicarboxamide] | IC50 [2]: < 2 µM; IC50 [4]: < 0.2 µM; IC50 [5]: < 2 µM
2 |  | < 2 | Cn1cc(-c2cc(Oc3ccc(NC(=O)C4(C(=O)NCc5ccccc5)CC4)c(F)c3F)ccn2)cn1 [Example 3, N-benzyl-N′-(2,3-difluoro-4-(2-(1-methyl-1H-pyrazol-4-yl)pyridin-4-yloxy)phenyl)cyclopropane-1,1-dicarboxamide] | IC50 [4]: < 2 µM; IC50 [5]: < 10 µM
3 | < 2 |  | Cn1cc(-c2cc(Oc3ccc(NC(=O)C4(C(=O)Nc5ccc(F)c(F)c5)CC4)c(F)c3)ccn2)cn1 [Example 24, N-(3,4-difluorophenyl)-N′-(2-fluoro-4-(2-(1-methyl-1H-pyrazol-4-yl)pyridin-4-yloxy)phenyl)cyclopropane-1,1-dicarboxamide] | 
4 | < 2 |  | Cn1cc(-c2cc(Oc3ccc(NC(=O)C4(C(=O)Nc5ccc(C(F)(F)F)cc5)CC4)c(F)c3)ccn2)cn1 [Example 25, N-(2-fluoro-4-(2-(1-methyl-1H-pyrazol-4-yl)pyridin-4-yloxy)phenyl)-N′-(4-(trifluoromethyl)phenyl)cyclopropane-1,1-dicarboxamide] | 
5 | < 10 |  | Cn1cc(-c2cc(Oc3ccc(NC(=O)C4(C(=O)Nc5ccc(F)c(C#N)c5)CC4)c(F)c3)ccn2)cn1 [Example 26, N-(3-cyano-4-fluorophenyl)-N′-(2-fluoro-4-(2-(1-methyl-1H-pyrazol-4-yl)pyridin-4-yloxy)phenyl)cyclopropane-1,1-dicarboxamide] | 
6 | < 2 |  | Cn1cc(-c2cc(Oc3ccc(NC(=O)C4(C(=O)Nc5ccc(F)cc5F)CC4)c(F)c3)ccn2)cn1 [Example 27, N-(2,4-difluorophenyl)-N′-(2-fluoro-4-(2-(1-methyl-1H-pyrazol-4-yl)pyridin-4-yloxy)phenyl)cyclopropane-1,1-dicarboxamide] | 
7 | < 10 |  | Cn1cc(-c2cc(Oc3ccc(NC(=O)C4(C(=O)Nc5ccc(C#N)cc5)CC4)c(F)c3)ccn2)cn1 [Example 28, N-(4-cyanophenyl)-N′-(2-fluoro-4-(2-(1-methyl-1H-pyrazol-4-yl)pyridin-4-yloxy)phenyl)cyclopropane-1,1-dicarboxamide] | 
8 | < 2 |  | Cn1cc(-c2cc(Oc3ccc(NC(=O)C4(C(=O)Nc5ccc(F)cc5Cl)CC4)c(F)c3)ccn2)cn1 [Example 29, N-(2-chloro-4-fluorophenyl)-N′-(2-fluoro-4-(2-(1-methyl-1H-pyrazol-4-yl)pyridin-4-yloxy)phenyl)cyclopropane-1,1-dicarboxamide] | 
9 | < 2 | < 10 | Cc1c(Oc2ccnc(-c3cnn(C)c3)c2)ccc(NC(=O)C2(C(=O)Nc3ccc(F)cc3)CC2)c1F [Example 32, N-(2-fluoro-3-methyl-4-(2-(1-methyl-1H-pyrazol-4-yl)pyridin-4-yloxy)phenyl)-N-(4-fluorophenyl)cyclopropane-1,1-dicarboxamide] | IC50 [6]: < 2 µM
10 | < 2 |  | C[C@H](NC(=O)C1(C(=O)Nc2ccc(Oc3ccnc(-c4cnn(C)c4)c3)c(F)c2)CC1)c1ccc(F)cc1 [Example 33, N-(3-fluoro-4-(2-(1-methyl-1H-pyrazol-4-yl)pyridin-4-yloxy)phenyl)-N′-((S)-1-(4-fluorophenyl)ethyl)cyclopropane-1,1-dicarboxamide] | 
11 | < 2 |  | CC[C@H](NC(=O)C1(C(=O)Nc2ccc(Oc3ccnc(-c4cnn(C)c4)c3)c(F)c2)CC1)c1ccc(F)cc1 [Example 34, N-(3-fluoro-4-(2-(1-methyl-1H-pyrazol-4-yl)pyridin-4-yloxy)phenyl)-N′-((S)-1-(4-fluorophenyl)propyl)cyclopropane-1,1-dicarboxamide] | 
12 | < 2 |  | Cn1cc(-c2cc(Oc3ccc(NC(=O)C4(C(=O)Nc5cccs5)CC4)c(F)c3)ccn2)cn1 [Example 35, N-(2-fluoro-4-(2-(1-methyl-1H-pyrazol-4-yl)pyridin-4-yloxy)phenyl)-N′-(thiophen-2-yl)cyclopropane-1,1-dicarboxamide] | 
13 | < 2 |  | COC[C@H](NC(=O)C1(C(=O)Nc2ccc(Oc3ccnc(-c4cnn(C)c4)c3)c(F)c2)CC1)c1ccc(F)cc1 [Example 36, N-(3-fluoro-4-(2-(1-methyl-1H-pyrazol-4-yl)pyridin-4-yloxy)phenyl)-N′((R)-1-(4-fluorophenyl)-2-methoxyethyl)cyclopropane-1,1-dicarboxamide] | 
14 | < 2 | < 10 | Cn1cc(-c2cc(Oc3ccc(NC(=O)C4(C(=O)Nc5ccc(F)cc5)CC4)cn3)ccn2)cn1 [Example 38, N-(4-fluorophenyl)-N′-(6-(2-(1-methyl-1H-pyrazol-4-yl)pyridin-4-yloxy)pyridin-3-yl)cyclopropane-1,1-dicarboxamide] | IC50 [6]: < 10 µM
15 |  |  | O=C(Cc1ccc(F)cc1)NC(=O)Nc1ccc(Oc2ccnc(-c3nc(C(F)(F)F)c[nH]3)c2)cc1 [Example 39, 1-(2-(4-fluorophenyl)acetyl)-3-(4-(2-(4-(trifluoromethyl)-1,1-imidazol-2-yl)pyridin-4-yloxy)phenyl)urea] | IC50 [4]: < 0.2 µM; IC50 [5]: < 2 µM
16 | < 10 | < 10 | Cc1cc(F)c(NC(=O)C2(C(=O)Nc3ccc(F)cc3)CC2)cc1Oc1nccc(-c2cnn(C)c2)n1 [Example 52, N-(2-fluoro-4-methyl-5-(4-(1-methyl-1H-pyrazol-4-yl)pyrimidin-2-yloxy)phenyl)-N′-(4-fluorophenyl)cyclopropane-1,1-dicarboxamide] | IC50 [6]: < 10 µM
17 | < 10 | < 10 | Cn1cc(-c2ccnc(Oc3ccc(F)c(NC(=O)C4(C(=O)Nc5ccc(F)cc5)CC4)c3)n2)cn1 [Example 53, N-(2-fluoro-5-(4-(1-methyl-1H-pyrazol-4-yl)pyrimidin-2-yloxy)phenyl)-N′-(4-fluorophenyl)cyclopropane-1,1-dicarboxamide] | IC50 [6]: < 10 µM
18 | < 10 | < 10 | Cc1cc(F)c(NC(=O)C2(C(=O)Nc3ccc(F)cc3)CC2)cc1Oc1nccc(-c2cn[nH]c2)n1 [Example 54, N-(5-(4-(1H-pyrazol-4-yl)pyrimidin-2-yloxy)-2-fluoro-4-methylphenyl)-N′-(4-fluorophenyl)cyclopropane-1,1-dicarboxamide] | IC50 [6]: < 10 µM
19 | < 2 |  | O=C(Nc1ccc(F)cc1)C1(C(=O)Nc2ccc(Oc3ccnc(-c4c[nH]nn4)c3)cc2F)CC1 [Example 60, N-(4-(2-(1H-1,2,3-triazol-4-yl)pyridin-4-yloxy)-2-fluorophenyl)-N′-(4-fluorophenyl)cyclopropane-1,1-dicarboxamide] | 

Row | Structure (SMILES) | IC50 [1] [µM] | IC50 [3] [µM] | other results
20 | CN(C(=O)C1(C(=O)Nc2ccc(F)cc2)CC1)c1ccc(Oc2ccnc(-c3cnn(C)c3)c2)c(F)c1 [Example 58, N-(3-fluoro-4-(2-(1-methyl-1H-pyrazol-4-yl)pyridin-4-yloxy)phenyl)-N′-(4-fluorophenyl)-N-methylcyclopropane-1,1-dicarboxamide] | < 10 | < 10 | IC50 [2]: < 10 µM; IC50 [4]: < 10 µM
